# According to patent US11542265B2, “Pyrazolopyrimidine compounds and uses thereof” (Incyte Corporation, priority 2016, dated 2023):
# Target: HPK1 (Homo sapiens, UniProt Q92918)
# Assay: HPK1 Kinase Binding Assay
# Conditions: LanthaScreen tracer 222, Eu-Anti GST antibody, active HPK1, one hour incubation at 25° C.
# Method: A stock solution of 1 mM test compound was prepared in DMSO. The compound plate was prepared by 3-fold and 11-point serial dilutions. 0.1 μL of the compound in DMSO was transferred from the compound plate to the white 384 well polystyrene plates. The assay buffer contained 50 mM HEPES, pH 7.5, 0.01% Tween-20, 5 mM MgCl2, 0.01% BSA, and 5 mM DTT. 5 μl of 4 nM active HPK1 (SignalChem M23-11G) prepared in the buffer was added to the plate. The enzyme concentration given was based on the given stock concentration reported by the vender. 5 μl of 18 nM tracer 222 (ThermoFisher PV6121) and 4 nM LanthaScreen Eu-Anti GST antibody (ThermoFisher PV5595) were added. After one hour incubation at 25° C., the plates were read on a PHERAstar FS plate reader (BMG Labtech). Ki values were determined.
# Sequence of HPK1 (Q92918 whole entry, looked up): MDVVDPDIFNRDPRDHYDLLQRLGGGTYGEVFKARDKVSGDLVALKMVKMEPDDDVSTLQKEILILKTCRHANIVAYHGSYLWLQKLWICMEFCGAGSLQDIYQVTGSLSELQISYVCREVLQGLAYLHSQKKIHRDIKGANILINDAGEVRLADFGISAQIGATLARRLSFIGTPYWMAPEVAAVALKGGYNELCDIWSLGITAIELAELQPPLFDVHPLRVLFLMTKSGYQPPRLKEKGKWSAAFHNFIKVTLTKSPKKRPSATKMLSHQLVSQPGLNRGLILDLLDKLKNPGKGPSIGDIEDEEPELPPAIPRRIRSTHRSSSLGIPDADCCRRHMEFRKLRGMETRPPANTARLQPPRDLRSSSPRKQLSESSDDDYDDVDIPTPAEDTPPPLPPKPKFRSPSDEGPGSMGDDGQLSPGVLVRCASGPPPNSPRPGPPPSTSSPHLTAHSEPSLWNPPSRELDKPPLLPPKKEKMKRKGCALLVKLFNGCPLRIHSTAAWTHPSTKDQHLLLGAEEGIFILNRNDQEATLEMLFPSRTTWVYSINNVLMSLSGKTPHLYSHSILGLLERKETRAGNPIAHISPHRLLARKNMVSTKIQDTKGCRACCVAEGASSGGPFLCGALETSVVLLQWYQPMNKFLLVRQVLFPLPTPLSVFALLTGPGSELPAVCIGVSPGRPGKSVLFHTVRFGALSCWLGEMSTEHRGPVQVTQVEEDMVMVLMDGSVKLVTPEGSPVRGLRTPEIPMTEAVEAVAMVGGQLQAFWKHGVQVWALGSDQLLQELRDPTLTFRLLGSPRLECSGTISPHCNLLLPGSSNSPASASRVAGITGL
row,Ki [µM],SMILES
1,≤ 0.1,"CNCc1cc(F)c(-c2ncc3[nH]nc(-c4ccc(NC5CCN(S(C)(=O)=O)CC5)cc4)c3n2)c(F)c1 [Example 72, 7V-(4-(5-(2,6-Difluoro-4-((methylamino)methyl)phenyl)-1H-pyrazolo[4,3-d]pyrimidin-3-yl)phenyl)-1-(methylsulfonyl)piperidin-4-amine]"
2,≤ 0.1,"CNCc1cc(F)c(-c2ncc3[nH]nc(-c4ccc(N5CCCCC5)nc4)c3n2)c(C(F)(F)F)c1 [Example 76, 1-(3-Fluoro-4-(3-(6-(piperidin-1-yl)pyridin-3-yl)-1H-pyrazolo[4,3-d]pyrimidin-5-yl)-5-(trifluoromethyl)phenyl)-N-methylmethanamine]"
3,≤ 0.1,"CN1CCN(c2ncc(-c3n[nH]c4cnc(-c5c(F)cc(CC#N)cc5F)nc34)cn2)CC1 [Example 105, 2-(3,5-Difluoro-4-(3-(2-(4-methylpiperazin-1-yl)pyrimidin-5-yl)-1H-pyrazolo[4,3-d]pyrimidin-5-yl)phenyl)acetonitrile]"
